Laboratory results taken from the CheMixHub viscosity set.

Assay: xn = mol fraction of the nth substance listed

NC=O + CCCO
Settings	viscosity [mPa·s]
293.15 K, 101 kPa, x1 = 0.0557	2.16
293.15 K, 101 kPa, x1 = 0.1172	2.201
293.15 K, 101 kPa, x1 = 0.1854	2.285
293.15 K, 101 kPa, x1 = 0.2615	2.419
298.15 K, 100 kPa, x1 = 0.0744	1.97
298.15 K, 100 kPa, x1 = 0.116	1.98
298.15 K, 100 kPa, x1 = 0.1885	2.07
298.15 K, 100 kPa, x1 = 0.294	2.27
298.15 K, 100 kPa, x1 = 0.3225	2.33
298.15 K, 100 kPa, x1 = 0.331	2.4
298.15 K, 100 kPa, x1 = 0.4121	2.54
298.15 K, 100 kPa, x1 = 0.4562	2.61
298.15 K, 100 kPa, x1 = 0.4974	2.73
298.15 K, 100 kPa, x1 = 0.5225	2.76
298.15 K, 100 kPa, x1 = 0.6129	2.96
298.15 K, 100 kPa, x1 = 0.6877	3.09
298.15 K, 100 kPa, x1 = 0.7379	3.17
298.15 K, 100 kPa, x1 = 0.8232	3.28
298.15 K, 100 kPa, x1 = 0.8536	3.31
298.15 K, 100 kPa, x1 = 0.9169	3.36
298.15 K, 100 kPa, x1 = 0.9506	3.34
298.15 K, 101 kPa, x1 = 0.0557	1.938
298.15 K, 101 kPa, x1 = 0.1172	1.976
298.15 K, 101 kPa, x1 = 0.1854	2.052
298.15 K, 101 kPa, x1 = 0.2615	2.181
303.15 K, 101 kPa, x1 = 0.0557	1.742
303.15 K, 101 kPa, x1 = 0.1172	1.775
303.15 K, 101 kPa, x1 = 0.1854	1.846
303.15 K, 101 kPa, x1 = 0.2615	1.962
303.15 K, 101 kPa, x2 = 0.0999	2.877
303.15 K, 101 kPa, x2 = 0.2004	2.813
303.15 K, 101 kPa, x2 = 0.3002	2.706
303.15 K, 101 kPa, x2 = 0.4	2.554
303.15 K, 101 kPa, x2 = 0.5	2.378
303.15 K, 101 kPa, x2 = 0.6	2.191
303.15 K, 101 kPa, x2 = 0.6998	2.022
303.15 K, 101 kPa, x2 = 0.8	1.87
303.15 K, 101 kPa, x2 = 0.9001	1.756
303.15 K, 101.3 kPa, x1 = 0.0961	1.6
303.15 K, 101.3 kPa, x1 = 0.1755	1.7
303.15 K, 101.3 kPa, x1 = 0.2494	1.8
303.15 K, 101.3 kPa, x1 = 0.3192	1.9
303.15 K, 101.3 kPa, x1 = 0.3902	2
303.15 K, 101.3 kPa, x1 = 0.4629	2.1
303.15 K, 101.3 kPa, x1 = 0.5342	2.2
303.15 K, 101.3 kPa, x1 = 0.614	2.4
303.15 K, 101.3 kPa, x1 = 0.6891	2.6
303.15 K, 101.3 kPa, x1 = 0.7654	2.7
303.15 K, 101.3 kPa, x1 = 0.8114	2.7
303.15 K, 101.3 kPa, x1 = 0.921	2.8
308.15 K, 101 kPa, x1 = 0.0557	1.584
308.15 K, 101 kPa, x1 = 0.1172	1.618
308.15 K, 101 kPa, x1 = 0.1854	1.678
308.15 K, 101 kPa, x1 = 0.2615	1.798
308.15 K, 101 kPa, x2 = 0.0999	2.554
308.15 K, 101 kPa, x2 = 0.2004	2.492
308.15 K, 101 kPa, x2 = 0.3002	2.393
308.15 K, 101 kPa, x2 = 0.4	2.261
308.15 K, 101 kPa, x2 = 0.5	2.11
308.15 K, 101 kPa, x2 = 0.6	1.949
308.15 K, 101 kPa, x2 = 0.6998	1.802
308.15 K, 101 kPa, x2 = 0.8	1.669
308.15 K, 101 kPa, x2 = 0.9001	1.569
308.15 K, 101.3 kPa, x1 = 0.0961	1.4
308.15 K, 101.3 kPa, x1 = 0.1755	1.5
308.15 K, 101.3 kPa, x1 = 0.2494	1.5
308.15 K, 101.3 kPa, x1 = 0.3192	1.6
308.15 K, 101.3 kPa, x1 = 0.3902	1.7
308.15 K, 101.3 kPa, x1 = 0.4629	1.8
308.15 K, 101.3 kPa, x1 = 0.5342	1.9
308.15 K, 101.3 kPa, x1 = 0.614	2.1
308.15 K, 101.3 kPa, x1 = 0.6891	2.2
